Measured values published in PubChem BioAssay (NCI).
Several values for one entry are separate records, joined by “and”; a condition that tells them apart may be missing. Identical values can stand only once.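 48-hour exposure; five concentrations; linearly interpolated endpoints. Here, GI50 denotes the concentration required for 50% inhibition of growth. Definition used: TGI = concentration required for complete inhibition of growth.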

Experiments:
Experiment in all cases: NCI anticancer screen, dose series, 48 h
DMS 273 small cell lung = tested on: DMS 273 small cell lung
M19-MEL melanoma = tested on: M19-MEL melanoma
DMS 114 small cell lung = tested on: DMS 114 small cell lung
LXFL 529 NSCLC = tested on: LXFL 529 NSCLC
XF 498 CNS = tested on: XF 498 CNS
DLD-1 colon = tested on: DLD-1 colon
RXF-631 renal = tested on: RXF-631 renal
HOP-18 NSCLC = tested on: HOP-18 NSCLC
MDA-N = tested on: MDA-N
SN12K1 renal = tested on: SN12K1 renal

Compound	TGI (DMS 273 small cell lung) [µM]	TGI (M19-MEL melanoma) [µM]	TGI (DMS 114 small cell lung)	TGI (LXFL 529 NSCLC) [µM]	TGI (XF 498 CNS) [µM]	TGI (DLD-1 colon) [µM]	TGI (RXF-631 renal) [µM]	TGI (HOP-18 NSCLC) [µM]	TGI (MDA-N)	further results
N#CC1(N2CCCC2)CCC2(CC1)OCCO2	> 10	> 10	> 100 µM	–	–	–	–	–	–	–
CC(=O)OC1=C2CC[C@@H]3C(CC[C@@]4(C)C3CC[C@@H]4OC(C)=O)[C@@]2(C)CC(C#N)C1=O (stereo partly drawn)	74	–	37.1 µM	91.3	80.8	69.8	–	–	–	–
Brc1ccc(C=NC23CC4CC(CC(C4)C2)C3)cc1	> 100	> 100	> 100 µM	> 100	> 100	> 100	> 100	> 100	–	–
CO/C=C(\Br)c1ccc2c(c1)OCO2	> 100	> 100	> 100 µM	> 100	> 100	–	> 100	–	–	–
OCCN(CCO)c1nc(N2CCCCC2)c2nc(N(CCO)CCO)nc(N3CCCCC3)c2n1	–	–	–	–	–	–	–	–	> 100 µM	–
CN(/N=C/c1ccccc1O)c1ccc2ccccc2n1	–	–	–	–	–	–	–	–	> 100 µM	–
C[N+](C)(C)C1CC([N+](C)(C)C)C2c3ccccc3C21 (stereo not drawn)	> 100	> 100	> 100 µM	> 100	> 100	> 100	> 100	–	–	–
CCOC(=O)CNC(=O)OCc1ccccc1	> 100	> 100	> 100 µM	> 100	> 100	> 100	> 100	–	–	–
[Co].[O-]c1cccnc1C=Nc1ccccc1.[OH3+]	> 100	> 100	> 100 µM	> 100	> 100	> 100	–	–	–	GI50 (LXFL 529 NSCLC): 47.2 µM; GI50 (XF 498 CNS): > 100 µM; GI50 (DMS 273 small cell lung): > 100 µM; GI50 (DLD-1 colon): 90.7 µM; GI50 (M19-MEL melanoma): > 100 µM; GI50 (DMS 114 small cell lung): > 100 µM
O=C(O)CN1C(=O)CN=C(c2ccccn2)c2cc(Cl)ccc21	–	–	–	–	–	–	–	–	> 100 µM	–
Cc1ccc2[nH]c(O)c(N=Nc3ccccc3[N+](=O)[O-])c2c1	–	–	–	–	–	–	–	–	> 100 µM	–
O=S1(=O)c2cc(S(=O)(=O)n3ccnc3)ccc2NC2=NCCCN21	–	> 100	49.6 µM	> 100	–	> 100	–	> 100	–	–
C=CCOc1ccc(N)c([N+](=O)[O-])c1	–	–	–	–	–	–	–	–	> 100 µM	–
Cc1ccc(/C=N/NS(=O)(=O)c2ccccc2)cc1C	> 100	> 100	> 100 µM	> 100	> 100	> 100	–	> 100	–	–
Cc1[nH]c2ccccc2c1C1=NO/C(=N\O)C(c2c(C)[nH]c3ccccc23)C1 (stereo not drawn)	> 100	> 100	> 100 µM	> 100	> 100	> 100	> 100	> 100	–	–
CN(C)CCN(C)C(=O)c1cccc2cccc(C(=O)O)c12	> 100	> 100	> 100 µM	> 100	> 100	> 100	> 100	> 100	–	–
COc1ccc(C[C@]23CCC(=O)N2CCc2cc(OC)c(O)cc23)cc1O	> 100	> 100	> 100 µM	> 100	–	–	> 100	> 100	–	–
COc1ccccc1NC(=O)CC(=O)n1nc(C)c(N=Nc2ccccc2Cl)c1C	> 100	> 100	> 100 µM	> 100	> 100	> 100	> 31.6	> 100	> 31.6 µM	–
C/C(=C\C(C[C@](C)(O)C(O)CCC#C[Si](C)(C)C)S(=O)(=O)c1ccccc1)CC/C=C/CO[Si](C)(C)C(C)(C)C (stereo partly drawn)	30.6	32.5	32.9 µM	–	26.2	48.2	23.9	–	–	–
O=C(O)CCSC(=O)Nc1cccc2ccccc12	> 100	> 100	> 100 µM	> 100	> 100	> 100	> 100	> 100	–	–

Compound	TGI (DMS 273 small cell lung) [µM]	TGI (M19-MEL melanoma) [µM]	TGI (DMS 114 small cell lung)	TGI (LXFL 529 NSCLC) [µM]	TGI (XF 498 CNS) [µM]	TGI (DLD-1 colon) [µM]	TGI (RXF-631 renal) [µM]	TGI (HOP-18 NSCLC) [µM]	TGI (MDA-N)	further results
O=C(CC1(O)C(=O)Nc2ccccc21)c1ccc(Cl)cc1Cl (stereo not drawn)	> 100	> 100	> 100 µM	> 100	> 100	> 100	> 100	–	–	–
COc1c(C)c(OC)c(C(=O)CC(C)C)c(OC)c1C	–	–	–	–	–	–	–	–	> 100 µM	–
FC(F)(F)c1cc(NC(=S)N2c3ccccc3-n3cccc3C2c2cccnc2)cc(C(F)(F)F)c1 (stereo not drawn)	–	–	–	–	–	–	–	–	32.5 µM	GI50 (MDA-N): 11.6 µM
CCC[CH2][Sn]1([CH2]CCC)[O]CC[S]1	3.56	2.75	1.26 µM	0.579	1.02	1.73	1.34	1.89	–	GI50 (LXFL 529 NSCLC): 0.134 µM; GI50 (RXF-631 renal): 0.285 µM; GI50 (XF 498 CNS): 0.476 µM; GI50 (DMS 273 small cell lung): 1.13 µM; GI50 (HOP-18 NSCLC): 0.717 µM; GI50 (DLD-1 colon): 0.47 µM; GI50 (M19-MEL melanoma): 0.475 µM; GI50 (DMS 114 small cell lung): 0.272 µM
CC1OC(CC(=O)O)Cc2c1c(O)c1c(O)cc(-c3cc(=O)c4c(=O)c5c(c(=O)c=4c3=O)CC(CC(=O)O)OC5C)c(O)c1c2O (stereo not drawn)	47	49	40 µM	22.8	34.5	26.4	–	45.7	–	GI50 (MDA-N): 29.1 µM
FC(F)(F)c1nc(SCc2ccc(Cl)cc2)n[nH]1	–	–	–	–	–	–	–	–	> 100 µM	–
O=C1NC2(CCCC2)C2CCCCC12O (stereo not drawn)	> 100	> 100	> 100 µM	> 100	> 100	> 100	> 100	> 100	–	–
C[C@]12CCc3nonc3C1CC[C@@H]1C2CC[C@@]2(C)C1CC[C@@H]2O (stereo partly drawn)	> 100	> 100	> 100 µM	> 100	> 100	> 100	> 100	> 100	–	–
CC(=O)NCc1c(C(N)=O)ncn1Cc1ccccc1	> 100	> 100	> 100 µM	> 100	> 100	–	> 100	> 100	–	–
O=C1OC(c2ccc(Cl)cc2)=N/C1=C\c1ccccc1	–	–	–	–	–	–	–	–	> 100 µM	–
CCN(CC)CCCNc1n[n+]([O-])c2ccccc2[n+]1[O-]	–	–	–	–	–	–	–	–	> 100 µM	–
N#CC(C(=O)CCC(=O)Nc1cccc(C(F)(F)F)c1)c1ccccc1 (stereo not drawn)	> 100	> 100	> 100 µM	> 100	> 100	> 100	–	–	–	–
O=S(=O)(O)n1ccnc1 (tested in a mixture with another compound)	–	–	–	–	–	–	–	–	> 100 µM	–
COc1ccccc1NC(=O)C1=C(C)NC(C)=C(C(=O)Nc2ccccc2OC)C1c1ccccc1Cl	> 100	> 100	> 100 µM	> 100	> 100	> 100	> 100	> 100	–	–
CC(C)CCCCCCCCCCCCC(=O)NCC(=O)NC1C(C)OC(Nc2ncnc3nc[nH]c23)C(O)C1O (stereo not drawn)	0.000586	0.014	0.263 µM and 0.0506 µM	0.515	0.000925	0.105	0.000583	–	–	GI50 (LXFL 529 NSCLC): 0.00336 µM; TGI (SN12K1 renal): 0.116 µM; GI50 (XF 498 CNS): 0.000129 µM; GI50 (DMS 273 small cell lung): 1.84e-05 µM; GI50 (M19-MEL melanoma): 0.000861 µM; GI50 (DMS 114 small cell lung): 0.00161 µM and 0.0148 µM
CCOC(=O)c1c(-c2ccc(OC)c(O)c2)c(C#N)c(=S)n(C2OC(COC(C)=O)C(OC(C)=O)C(OC(C)=O)C2OC(C)=O)c1-c1ccccc1 (stereo not drawn)	–	–	–	–	–	–	–	–	37.8 µM and > 100 µM	GI50 (MDA-N): 16.8 µM and > 100 µM
CC(=O)[CH-]C(C)=O.CC(=O)[CH-]C(C)=O.[Cl-].[O]=[V]	39.7	–	> 100 µM	> 100	66	> 100	–	> 100	–	GI50 (LXFL 529 NSCLC): 47.5 µM; GI50 (XF 498 CNS): 17.8 µM; GI50 (DMS 273 small cell lung): 20.9 µM; GI50 (HOP-18 NSCLC): > 100 µM; GI50 (DLD-1 colon): 34.6 µM; GI50 (DMS 114 small cell lung): 35.8 µM
O=C(C=Nc1ccccc1S)c1ccco1	31.7	27	31 µM	15.9	–	28.1	25.7	37.1	–	GI50 (LXFL 529 NSCLC): 4.57 µM; GI50 (RXF-631 renal): 7.22 µM
CC[O-].CC[O-].O=C([CH-]C(=O)c1ccccc1)CCCCCCC(=O)[CH-]C(=O)c1ccccc1.[Ti+4]	> 100	> 100	–	> 100	> 100	> 100	–	> 100	–	GI50 (LXFL 529 NSCLC): > 100 µM; GI50 (XF 498 CNS): > 100 µM; GI50 (DMS 273 small cell lung): > 100 µM; GI50 (HOP-18 NSCLC): > 100 µM; GI50 (DLD-1 colon): > 100 µM; GI50 (M19-MEL melanoma): > 100 µM
